Source: article PMC11672750, “PfGSTF2 endows resistance to quizalofop‐p‐ethyl in Polypogon fugax by GSH conjugation” (Plant Biotechnology Journal, 2024)

System: PfGSTF58
Assay: absorbance at […] nm, Michaelis-Menten fit
Format: biochemical, Polypogon fugax
Details: GSH co-substrate; 30 °C

O=[N+]([O-])c1ccc(Cl)c([N+](=O)[O-])c1 [1-chloro-2,4-dinitrobenzene]
Km: 450 ± 90 µM
